The IC50 is the point on the concentration scale where inhibition reaches its midpoint.

Structures are written as SMILES.

The text below walks through data of patent US20240246968A1, “SMALL MOLECULE INHIBITORS OF KRAS G12C MUTANT” (Merck Sharp & Dohme LLC, priority 2021, published 2024).

The target in assay [1] is Gppcp-bound recombinant K-Ras4B G12C mutant protein (amino acids 1-169, C51S/C80L/C118S) (Homo sapiens, UniProt P01116, C118S/C51S/C80L/G12C). Nature of the assay: KRASG12C binding assay (LC-MS, compound binding rate). To be noted: test compound final concentration 0.5 μM, 25° C., 1 hour. The essentials: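 Covalent adduct formation measured by deconvoluted intact-mass LC-MS after 1 h at 25 °C with compound at 0.5 μM final and 50 nM Gppcp-loaded KRAS G12C (residues 1-169, C51S/C80L/C118S). Buffer: TBS, 0.1 mM TCEP, 0.25 mM MgCl2, 50 μM Gppcp. Binding % = one-molecule adduct/(unbound + all adducts), binned A ≥80, B 60–80, C 40–60, D 20–40, E <20.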

Assay [2] has as its target T1, interaction between recombinant K-Ras4B G12C mutant protein and cRAF RAS-binding domain (cRAF-RBD) (Homo sapiens, UniProt P01116, G12C).
T1 construct: made in house; host or cells: E. coli
Nature of the assay: Inhibitory activity on interaction between KRAS G12C and cRAF (Alpha technology). In kind it is biochemical. Conditions: GMPPNP-bound KRAS G12C incubated with compound at 25° C. for 1 hour, then cRAF-RBD; Alpha signal. The essentials:
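Alpha readout of cRAF-RBD (aa 50-132) binding to KRAS G12C (aa 1-169) after 1.5 h RT, following 1 h, 25° C compound preincubation with GMPPNP-bound protein (pH 7.5 Tris, 1 mM MgCl2, TCEP, Tween 20). IC50 fitted from titrations, with GDP-bound KRAS as 100% and DMSO as 0% inhibition.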

For assay [3], the system named is MIA PaCa-2 cells. Kind of assay: Growth inhibition activity on KRAS-G12C mutant cell line (MIA PaCa-2), CellTiter-Glo 3D. To be noted: Homo sapiens, MIA PaCa-2, 72 h, MIA PaCa-2, 3-day culture with compound. Type of assay: cell-based, human. In outline: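 Luminescence readout (CellTiter-Glo 3D) after 3 days of compound treatment at 37 °C, 5% CO2, 0.2% final DMSO, gave % growth inhibition versus no-compound wells, from which IC50 (nM) was derived; cells had been plated in 10% FBS RPMI1640 one day before dosing.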
In general terms: Cellular ATP, detected with luciferase, serves as a proxy for viable cell number.

Consider `Cc1nc2cc(-c3cccn4c(C(=O)c5cc(F)c(NC(=O)/C=C/CN[C@H]6CC[C@H](O)CC6)c(F)c5)ccc34)c(C(F)(F)F)cc2n1C` [Example 55], for which, in assay [1], the binding rate result was “A (A binding rate of 80% or more is rated “A”)”. Moreover, the IC50 is 41 nM in assay [2] and 88 nM in assay [3].

On to `CO[C@H]1CC[C@H](NC/C=C/C(=O)Nc2c(F)cc(C(=O)c3ccc4c(-c5c(C)cc6c(nc(CO)n6C)c5Cl)cccn34)cc2F)CC1` [Example 58], for which the binding rate entry in assay [1] was “A (A binding rate of 80% or more is rated “A”)”. Also, the concentration for half-maximal inhibition (IC50) in assay [2] was determined as 35 nM; in assay [3], 69 nM.

For `CO[C@H]1CC[C@H](NC/C=C/C(=O)Nc2c(F)cc(C(=O)c3ccc4c(-c5c(C)cc6c(nc(COC(=O)/C=C/CN[C@H]7CC[C@H](OC)CC7)n6C)c5Cl)cccn34)cc2F)CC1` [Example 59, (4-chloro-5-(3-(3,5-difluoro-4-((E)-4-(((1r,4r)-4-methoxycyclohexyl)amino)but-2-enamido)benzoyl)indolizin-8-yl)-1,6-dimethyl-1H-benzo[d]imidazol-2-yl)methyl (E)-4-(((1r,4r)-4-methoxycyclohexyl)amino)but-2-enoate], in assay [1], the binding rate entry was “A (A binding rate of 80% or more is rated “A”)”. The concentration for half-maximal inhibition (IC50) in assay [2] is 34 nM; in assay [3] it was 230 nM.

`Cc1nc2cc(-c3cccn4c(C(=O)c5cc(F)c(NC(=O)/C=C/CNC6(C)CC6)c(F)c5)ccc34)c(C(F)(F)F)cc2n1C` [Example 62, (E)-N-(4-(8-(1,2-dimethyl-6-(trifluoromethyl)-1H-benzo[d]imidazol-5-yl)indolizine-3-carbonyl)-2,6-difluorophenyl)-4-((1-methylcyclopropyl)amino)but-2-enamide]: the binding rate entry in assay [1] was “A (A binding rate of 80% or more is rated “A”)”. In addition, the IC50 in assay [2] was 66 nM; in assay [3], 140 nM.

Take `Cc1nc2cc(-c3cccn4c(C(=O)c5cc(F)c(NC(=O)/C=C/CNC6CCCCC6O)c(F)c5)ccc34)c(C(F)(F)F)cc2n1C` (stereo not drawn) [Example 63, (E)-N-(4-(8-(1,2-dimethyl-6-(trifluoromethyl)-1H-benzo[d]imidazol-5-yl)indolizine-3-carbonyl)-2,6-difluorophenyl)-4-((2-hydroxycyclohexyl)amino)but-2-enamide]: in assay [1], the binding rate result is “A (A binding rate of 80% or more is rated “A”)”. In addition, the IC50 in assay [2] was 71 nM; in assay [3], 400 nM.

In the case of `CO[C@H]1CC[C@H](NC/C=C/C(=O)Nc2c(F)cc(C(=O)c3ccc4c(-c5c(C(F)F)cc6c(nc(C)n6C)c5Cl)cccn34)cc2F)CC1` [Example 64, (E)-N-(4-(8-(4-chloro-6-(difluoromethyl)-1,2-dimethyl-1H-benzo[d]imidazol-5-yl)indolizine-3-carbonyl)-2,6-difluorophenyl)-4-(((1r,4r)-4-methoxycyclohexyl)amino)but-2-enamide], the binding rate result in assay [1] was “A (A binding rate of 80% or more is rated “A”)”. Also, the half-maximal inhibitory concentration (IC50) in assay [2] came to 46 nM; in assay [3], 25 nM.

Take `Cc1nc2cc(-c3cccn4c(C(=O)c5cc(F)c(NC(=O)/C=C/CNC6CCCCC6CO)c(F)c5)ccc34)c(C(F)(F)F)cc2n1C` (stereo not drawn) [Example 65, (E)-N-(4-(8-(1,2-dimethyl-6-(trifluoromethyl)-1H-benzo[d]imidazol-5-yl)indolizine-3-carbonyl)-2,6-difluorophenyl)-4-((2-(hydroxymethyl)cyclohexyl)amino)but-2-enamide]: the binding rate entry in assay [1] is reported as “A (A binding rate of 80% or more is rated “A”)”. Moreover, the values for the IC50 in assay [2] and in assay [3] were 76 nM and 190 nM, respectively.

For `Cc1nc2cc(-c3cccn4c(C(=O)c5cc(F)c(NC(=O)/C=C/CNC6CCOC(C)(C)C6)c(F)c5)ccc34)c(C(F)(F)F)cc2n1C` (stereo not drawn) [Example 66], the binding rate result in assay [1] was “A (A binding rate of 80% or more is rated “A”)”. The figures for the IC50 in assay [2] and in assay [3] were 70 nM and 97 nM, respectively.

Consider `CO[C@H]1CC[C@H](NC/C=C/C(=O)Nc2c(F)cc(C(=O)c3ccc4c(-c5c(C(F)(F)F)cc6c(nc(CO)n6C)c5Cl)cccn34)cc2F)CC1` [Example 67, (E)-N-(4-(8-(4-chloro-2-(hydroxymethyl)-1-methyl-6-(trifluoromethyl)-1H-benzo[d]imidazol-5-yl)indolizine-3-carbonyl)-2,6-difluorophenyl)-4-(((1r,4r)-4-methoxycyclohexyl)amino)but-2-enamide], for which the binding rate entry in assay [1] was “A (A binding rate of 80% or more is rated “A”)”. The 50% inhibitory concentration (IC50) in assay [2] is 38 nM; in assay [3], 51 nM.

For the compound `CO[C@H]1CC[C@H](NC/C=C/C(=O)Nc2c(F)cc(C(=O)c3ccc4c(-c5c(C(F)(F)F)cc6c(nc(CF)n6C)c5Cl)cccn34)cc2F)CC1` [Example 68], the binding rate entry in assay [1] is reported as “A (A binding rate of 80% or more is rated “A”)”. Also, the IC50 in assay [2] was 77 nM; in assay [3] it was 67 nM.

As to `Cc1nc2cc(-c3cccn4c(C(=O)c5cc(F)c(NC(=O)/C=C/CNC6(CO)CCCCC6)c(F)c5)ccc34)c(C(F)(F)F)cc2n1C` [Example 69, (E)-N-(4-(8-(1,2-dimethyl-6-(trifluoromethyl)-1H-benzo[d]imidazol-5-yl)indolizine-3-carbonyl)-2,6-difluorophenyl)-4-((1-(hydroxymethyl)cyclohexyl)amino)but-2-enamide], the binding rate entry in assay [1] is “A (A binding rate of 80% or more is rated “A”)”. Moreover, the half-maximal inhibitory concentration (IC50) in assay [2] came to 87 nM; in assay [3] it was 340 nM.

On to `Cc1nc2cc(-c3cccn4c(C(=O)c5cc(F)c(NC(=O)/C=C/CNC6(CO)CCOCC6)c(F)c5)ccc34)c(C(F)(F)F)cc2n1C` [Example 70, (E)-N-(4-(8-(1,2-dimethyl-6-(trifluoromethyl)-1H-benzo[d]imidazol-5-yl)indolizine-3-carbonyl)-2,6-difluorophenyl)-4-((4-(hydroxymethyl)tetrahydro-2H-pyran-4-yl)amino)but-2-enamide], for which the binding rate result in assay [1] is listed as “A (A binding rate of 80% or more is rated “A”)”. The results for the concentration for half-maximal inhibition (IC50) in assay [2] and in assay [3] were 70 nM and 210 nM, respectively.

Consider `Cc1nc2cc(-c3cccn4c(C(=O)c5cc(F)c(NC(=O)/C=C/CNC6CCN(C)C(=O)C6)c(F)c5)ccc34)c(C(F)(F)F)cc2n1C` (stereo not drawn) [Example 72, (E)-N-(4-(8-(1,2-dimethyl-6-(trifluoromethyl)-1H-benzo[d]imidazol-5-yl)indolizine-3-carbonyl)-2,6-difluorophenyl)-4-((1-methyl-2-oxopiperidin-4-yl)amino)but-2-enamide], for which the binding rate result in assay [1] is “A (A binding rate of 80% or more is rated “A”)”. The IC50 in assay [2] worked out at 89 nM; in assay [3], 100 nM.

As for `Cc1cc2c(nc(CC(N)=O)n2C)c(Cl)c1-c1cccn2c(C(=O)c3cc(F)c(NC(=O)/C=C/CNC(C)(C)C)c(F)c3)ccc12` [Example 73, (E)-N-(4-(8-(2-(2-amino-2-oxoethyl)-4-chloro-1,6-dimethyl-1H-benzo[d]imidazol-5-yl)indolizine-3-carbonyl)-2,6-difluorophenyl)-4-(tert-butylamino)but-2-enamide], in assay [1], the binding rate result was “A (A binding rate of 80% or more is rated “A”)”. Moreover, the IC50 in assay [2] was found to be 73 nM; in assay [3] it was 300 nM.

With `Cc1cc2c(nc(CC#N)n2C)c(Cl)c1-c1cccn2c(C(=O)c3cc(F)c(NC(=O)/C=C/CNC(C)(C)C)c(F)c3)ccc12` [Example 74, (E)-4-(tert-butylamino)-N-(4-(8-(4-chloro-2-(cyanomethyl)-1,6-dimethyl-1H-benzo[d]imidazol-5-yl)indolizine-3-carbonyl)-2,6-difluorophenyl)but-2-enamide], in assay [1], the binding rate entry is on record as “A (A binding rate of 80% or more is rated “A”)”. The concentration for half-maximal inhibition (IC50) was 64 nM in assay [2] and 65 nM in assay [3].

As to `CO[C@H]1CC[C@H](NC/C=C/C(=O)Nc2c(F)cc(C(=O)c3cc(I)c4c(-c5c(C)cc6c(nc(C)n6C)c5Cl)cccn34)cc2F)CC1` [Example 75, (E)-N-(4-(8-(4-chloro-1,2,6-trimethyl-1H-benzo[d]imidazol-5-yl)-1-iodoindolizine-3-carbonyl)-2,6-difluorophenyl)-4-(((1r,4r)-4-methoxycyclohexyl)amino)but-2-enamide], in assay [1], the binding rate result was “A (A binding rate of 80% or more is rated “A”)”. The IC50 in assay [2] turned out to be 37 nM; in assay [3] it was 230 nM.

Regarding `Cc1nc2cc(-c3cccn4c(C(=O)c5cc(F)c(NC(=O)/C=C/CNC(C)(C)CF)c(F)c5)ccc34)c(C(F)(F)F)cc2n1C` [Example 76, (E)-N-(4-(8-(1,2-dimethyl-6-(trifluoromethyl)-1H-benzo[d]imidazol-5-yl)indolizine-3-carbonyl)-2,6-difluorophenyl)-4-((1-fluoro-2-methylpropan-2-yl)amino)but-2-enamide], in assay [1], the binding rate entry is recorded as “A (A binding rate of 80% or more is rated “A”)”. Also, the IC50 turned out to be 75 nM in assay [2] and 300 nM in assay [3].
